Earlier results on 2 compounds are cited in patent US20250034331A1, “POLYESTER URETHANE BIORESORBABLE ELASTOMERS WITH MICROSTRUCTURES FOR TUNABLE DRUG RELEASE AND TUNABLE DEGRADATION” (SOLESIS, INC., priority 2023, published 2025).

For data set [1] the following is noted: humans.

As for `NCCCCCCN` [HDA, hexamethylene diamine], the time of excretion in data set [1] is not above 10 h.

With `C[C@@H]1C[C@H]2[C@@H]3CCC4=CC(=O)C=C[C@]4(C)[C@@]3(F)[C@@H](O)C[C@]2(C)[C@@]1(O)C(=O)CO` [dexamethasone], the “solubility in PBS” value is “about 75 μg/mL”.
